# Entries after “also recorded” stand apart in the source; their conditions may differ.
# Legend:
# Assay type in all cases: biochemical
# [1] = biological target: T1, recombinant human caspase-9 (Homo sapiens, UniProt P55211); assay: Ac-DNLD-MCA and Ac-DEVD-MCA cleavage assay, caspase-9; settings: 200 μM substrate, 37°C, MCA liberation
# T1 sequence (P55211 140-315 limits assumed): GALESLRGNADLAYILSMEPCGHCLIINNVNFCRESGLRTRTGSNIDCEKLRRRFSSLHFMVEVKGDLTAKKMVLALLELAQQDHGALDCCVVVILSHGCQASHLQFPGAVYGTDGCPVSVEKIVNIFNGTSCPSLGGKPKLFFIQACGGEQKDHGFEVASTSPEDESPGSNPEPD
# T1 sequence (P55211 331-416 limits assumed): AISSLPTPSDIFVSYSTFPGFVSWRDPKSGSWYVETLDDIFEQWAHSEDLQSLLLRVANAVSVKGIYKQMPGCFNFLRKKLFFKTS
# Protocol: (§1) To characterize the potency and selectivity of Ac-DNLD-MCA for caspases-3, -7, -8, and -9, in vitro caspase activity assays were performed. One unit (the amount of enzyme that cleaves 1 nmol of substrate per hr) of each active recombinant human caspase was added to a reaction mixture containing 200 μM Ac-DNLD-MCA or Ac-DEVD-MCA in assay buffer (100 mM NaCl, 50 mM HEPES, 10 mM DTT, 1 mM EDTA, 10% glycerol, and 0.1% CHAPS, pH 7.4). Then, the liberation of MCA was monitored continuously at 37°C using a 96-well plate reader Wallace 1420 ARVOsx (PerkinElmer) with an excitation wavelength of 390 nm and an emission wavelength of 460 nm.
# [2] = biological target: T2, substituted (S209A) caspase-3 (Homo sapiens, UniProt P42574, S209A); assay: Cleavage assay with substituted (S209A) caspase-3 versus wild-type; settings: S209A versus wild-type caspase-3
# T2 construct: Active caspase-3 was generated by coexpression of HA-p17 and HA-p12 (wild type or mutant) subunits in vitro; (position 176–208, antisense); made in house
# T2 sequence (P42574 29-175 limits assumed): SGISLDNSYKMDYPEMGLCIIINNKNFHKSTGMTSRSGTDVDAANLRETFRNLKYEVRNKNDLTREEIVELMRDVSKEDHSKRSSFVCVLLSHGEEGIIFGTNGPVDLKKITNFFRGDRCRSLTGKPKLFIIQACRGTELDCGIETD
# T2 sequence (P42574 176-277 S209A limits assumed): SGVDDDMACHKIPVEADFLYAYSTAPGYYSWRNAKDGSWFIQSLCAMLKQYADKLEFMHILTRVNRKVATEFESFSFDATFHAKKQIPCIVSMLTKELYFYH
# Protocol: as §1
# Site-directed mutagenesis of p12 subunit (S209A) was introduced using PCR. The following primers were used for the preparation of the mutant, 5'-[…] TGACATG-3' (position 176–208, sense) and 5'-[…]-3' (position 176–208, antisense); 5'-[…]-3' (position 209–277, sense) and 5'-[…]-3' (position 209–277, antisense). The mutated site (Ser209→Ala) was shown in bold letter. After each fragments were amplified and ligated, they were tagged with HA and subcloned into pcDNA3 B (Invitrogen) at the EcoRV site. After comfirming the sequences, the inserts were excited by XhoI digestion and recloned into the XhoI site of pURE4 (Post Genome Institute Co., Ltd.) […]
# [3] = biological target: T3, recombinant human caspase-8 (Homo sapiens, UniProt Q14790); assay: Ac-DNLD-MCA and Ac-DEVD-MCA cleavage assay, caspase-8; settings: 200 μM substrate, 37°C, MCA liberation
# T3 construct: each active recombinant human caspase was incubated; purchased Calbiochem
# T3 sequence (Q14790 217-374 limits assumed): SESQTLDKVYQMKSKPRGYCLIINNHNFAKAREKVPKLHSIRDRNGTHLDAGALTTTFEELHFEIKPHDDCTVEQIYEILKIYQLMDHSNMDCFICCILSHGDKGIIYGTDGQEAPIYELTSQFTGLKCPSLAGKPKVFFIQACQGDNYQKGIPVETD
# T3 sequence (Q14790 385-479 limits assumed): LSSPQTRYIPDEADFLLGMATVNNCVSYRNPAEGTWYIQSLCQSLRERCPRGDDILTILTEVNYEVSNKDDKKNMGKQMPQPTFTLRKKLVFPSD
# Protocol: as §1
# [4] = biological target: T4, recombinant human caspase-7 (Homo sapiens, UniProt P55210); assay: Ac-DNLD-MCA and Ac-DEVD-MCA cleavage assay, caspase-7; settings: 200 μM substrate, 37°C, MCA liberation
# T4 construct: each active recombinant human caspase was incubated; purchased Calbiochem
# T4 sequence (P55210 24-198 limits assumed): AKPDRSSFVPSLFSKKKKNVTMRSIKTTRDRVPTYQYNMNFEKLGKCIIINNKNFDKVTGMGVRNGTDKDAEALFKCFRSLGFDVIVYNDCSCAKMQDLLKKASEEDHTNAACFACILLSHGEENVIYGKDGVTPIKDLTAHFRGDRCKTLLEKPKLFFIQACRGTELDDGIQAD
# T4 sequence (P55210 207-303 limits assumed): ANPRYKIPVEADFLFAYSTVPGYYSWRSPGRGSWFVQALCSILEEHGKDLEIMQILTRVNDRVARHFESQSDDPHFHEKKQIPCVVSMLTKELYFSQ
# Protocol: as §1
substance,measurement,setting,value
Ac-DEVD-MCA,cleavage of fluorometric substrate by caspase-9 (in words),[1],able to cleave
same,cleavage of substrate by S209A caspase-3 compared with wild-type (in words),[2],virtually no effect; also recorded: as efficient as the wild-type
same,cleavage of fluorometric substrate by caspase-8 (in words),[3],able to cleave
same,cleavage of fluorometric substrate by caspase-7 (in words),[4],able to cleave

# From publication PMC1931592 (BMC Pharmacology, 2007)
